Molecular target: T1, eIF4E-eIF4G1 complex (Homo sapiens, UniProt Q04637)
T1 construct: co-immunoprecipitation of endogenous eIF4G1 in HEK293T cells expressing HA-eIF1 or HA-eIF4E was performed; endogenous in cells; host or cells: HEK293T (eIF4G1 endogenous; HA-eIF4E transfected)
Assay: Co-immunoprecipitation of endogenous eIF4G1 with HA-eIF4E
Format: cell-based
Details: HEK293T; i14G1-10 20 μM, i14G1-12 10 μM; 4 h
Procedure: FIGS. 2A-C: The effect of i14G1-10 and i14G1-12 on eIF1-eIF4G1 and eIF4E-eIF4G1 complexes. (2A-B) HA-eIF1 and HA-eIF4E were each transfected into HEK293T cells and 48 h after transfection cells were treated with DMSO or i14G1-10 (2A) or i14G1-12 (2B) for 4 h, followed by immunoprecipitation of HA-eIF1 or HA-eIF4E using anti-HA-agarose beads. Western blot was run to check co-immunoprecipitation of endogenous eIF4G1 with HA-eIF1 or HA-eIF4E. The graphs represent the co-immunoprecipitation of eIF4G1 with HA-eIF1 (right) or HA-eIF4E (left). Co—IP data shown as mean±SEM of 4-7 independent experiments. The asterisks denote statistically significant difference compared to DMSO, according to Student's t-tests (one-tailed, paired). *p<0.05. (2C) HEK293T cells were treated with DMSO, i14G1-10, or i14G1-12 for 4 h, followed by cell lysis. Respective cell lysates were incubated with cap analog (γ-Aminohexyl-m7GTP) beads for 2 h to precipitate bound eIF4E. Western blot was performed to check co-precipitation of eIF4G1 along with eIF4E on the cap-analog beads. The graph represents the binding fraction of eIF4G1 and eIF4E to the cap-analog beads (mean±SEM) with DMSO (black), i14G1-10 (blue), and i14G1-12 (red), n=6. The asterisks denote statistically significant difference compared to DMSO, according to Student's t-tests (one-tailed, paired). *p<0.05; **p<0.01.
Co-immunoprecipitation. HEK293T cells were transfected with 5 μg of HA-eIF1 or HA-eIF4E plasmids along with 10 ng GFP plasmid to check for transfection efficiency using Jetprime reagent as per manufacturer's protocol. After 48 h, HA-eIF1 and HA-eIF4E expressing HEK293T cells were incubated with DMSO, i14G1-10 (20 μM), and […] (10 μM). 4 h later, cells were lysed using IP buffer (20 mM Tris pH8, 125 mM NaCl, 10% glycerol, 50 mM NaF, 1 mM […], 0.5% NP-40, and 0.2 mM EDTA) supplemented with fresh protease inhibitor cocktail (1:100) and PMSF 200 μM (1:100). Protein extract was taken for immunoprecipitation using either monoclonal anti-HA-agarose antibody (Sigma) or control IgG antibody in IP buffer, at 4° C. for 2 hours. […]

T1 sequence (Q04637 whole entry): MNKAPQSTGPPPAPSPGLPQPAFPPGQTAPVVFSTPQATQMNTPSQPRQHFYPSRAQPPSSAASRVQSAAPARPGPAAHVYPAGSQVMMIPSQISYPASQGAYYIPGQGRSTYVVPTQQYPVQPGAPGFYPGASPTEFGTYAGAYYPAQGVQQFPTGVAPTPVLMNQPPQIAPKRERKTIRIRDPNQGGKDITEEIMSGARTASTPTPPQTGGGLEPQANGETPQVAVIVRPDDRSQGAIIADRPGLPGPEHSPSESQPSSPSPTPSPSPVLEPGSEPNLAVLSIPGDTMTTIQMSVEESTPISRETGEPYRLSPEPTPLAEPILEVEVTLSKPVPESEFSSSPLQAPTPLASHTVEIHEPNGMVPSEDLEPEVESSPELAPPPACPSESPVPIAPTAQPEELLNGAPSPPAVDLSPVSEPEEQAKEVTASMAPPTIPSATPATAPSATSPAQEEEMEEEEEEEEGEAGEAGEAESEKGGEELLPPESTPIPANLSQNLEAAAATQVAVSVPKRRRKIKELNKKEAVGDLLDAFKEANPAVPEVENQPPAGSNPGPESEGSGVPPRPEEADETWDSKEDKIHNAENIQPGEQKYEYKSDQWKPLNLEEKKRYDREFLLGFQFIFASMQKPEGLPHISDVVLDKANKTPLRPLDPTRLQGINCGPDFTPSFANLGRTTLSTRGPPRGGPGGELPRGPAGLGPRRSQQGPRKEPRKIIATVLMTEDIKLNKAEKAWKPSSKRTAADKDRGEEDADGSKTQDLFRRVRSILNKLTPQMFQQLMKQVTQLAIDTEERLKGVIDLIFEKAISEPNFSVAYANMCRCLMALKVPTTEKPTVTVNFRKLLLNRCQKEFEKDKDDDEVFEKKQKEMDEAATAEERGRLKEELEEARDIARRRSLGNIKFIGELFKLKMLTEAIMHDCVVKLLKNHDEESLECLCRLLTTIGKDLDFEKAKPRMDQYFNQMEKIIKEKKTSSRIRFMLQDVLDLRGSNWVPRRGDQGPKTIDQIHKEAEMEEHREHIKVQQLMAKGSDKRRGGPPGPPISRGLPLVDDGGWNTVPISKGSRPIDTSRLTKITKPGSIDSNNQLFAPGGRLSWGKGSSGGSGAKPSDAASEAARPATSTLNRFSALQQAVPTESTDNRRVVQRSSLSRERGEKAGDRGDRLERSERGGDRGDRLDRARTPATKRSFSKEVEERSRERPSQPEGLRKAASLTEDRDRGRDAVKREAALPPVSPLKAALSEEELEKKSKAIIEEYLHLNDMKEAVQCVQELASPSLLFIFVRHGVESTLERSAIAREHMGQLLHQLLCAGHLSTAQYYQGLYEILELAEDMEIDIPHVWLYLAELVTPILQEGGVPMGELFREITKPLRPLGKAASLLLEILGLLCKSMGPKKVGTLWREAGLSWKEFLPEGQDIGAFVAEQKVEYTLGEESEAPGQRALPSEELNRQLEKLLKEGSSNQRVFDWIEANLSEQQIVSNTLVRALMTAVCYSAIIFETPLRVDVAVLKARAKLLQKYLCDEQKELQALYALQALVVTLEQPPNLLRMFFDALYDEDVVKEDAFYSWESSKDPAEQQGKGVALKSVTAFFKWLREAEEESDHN
T1 sequence (P06730 whole entry partner): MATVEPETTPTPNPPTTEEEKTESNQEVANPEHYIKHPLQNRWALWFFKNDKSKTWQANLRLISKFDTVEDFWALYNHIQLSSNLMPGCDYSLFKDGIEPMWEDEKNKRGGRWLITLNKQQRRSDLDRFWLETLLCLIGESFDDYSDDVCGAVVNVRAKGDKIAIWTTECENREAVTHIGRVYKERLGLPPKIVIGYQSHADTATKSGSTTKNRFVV

| Structure (SMILES) | enhancement of eIF4G1 binding to HA-eIF4E |
| --- | --- |
| O=C(/C=C/Sc1ccc(C(F)(F)F)cn1)c1ccccc1 [i14G1-10] | dramatic enhancement |
| Cn1ccnc1S/C(=C/C=C(C#N)C#N)c1ccc(Cl)cc1 [i14G1-12] | not significant |

— patent US20250090510A1, “eIF4G1-eIF1 INHIBITORS AND USE THEREOF” (YEDA RESEARCH AND DEVELOPMENT CO. LTD., priority 2022, published 2025)
